Patent publication US20250360145A1, “CSF-1R INHIBITORS AND USES THEREOF” (Myrobalan Therapeutics, Inc., priority 2022, published 2025)
Read-outs that look alike come from different tables or passages of the source.

Legend:
[1] = system: Ba/F3_CSF-1R (stably expressing human CSF-1R kinase); assay: Cell proliferation assay, Ba/F3_CSF-1R; format: cell-based; settings: BaF3, 72 h
[2] = biological target: CSF-1R (Homo sapiens (Human), UniProt P07333); assay: Biochemical HTRF kinase assay, CSF-1R; settings: Table 2; recombinant human CSF-1R;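 note: enzyme incubated with inhibitor plus a substrate and ATP mix for one hour at room temperature before HTRF detection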
[3] = system: EOC2 cell; assay: Cell proliferation assay, EOC2; format: cell-based, mouse; settings: Mus musculus, 72 h
[4] = Ba/F3_CSF-1R cells, 72 hours treatment, read-out: CSF-1R BaF3 EC50
[5] = EOC2 cells, 72 hours treatment, read-out: ECO2 EC50
[6] = read-out: CSF-1R BaF3 EC50 (nM)

Chain of CSF-1R (P07333 20-972): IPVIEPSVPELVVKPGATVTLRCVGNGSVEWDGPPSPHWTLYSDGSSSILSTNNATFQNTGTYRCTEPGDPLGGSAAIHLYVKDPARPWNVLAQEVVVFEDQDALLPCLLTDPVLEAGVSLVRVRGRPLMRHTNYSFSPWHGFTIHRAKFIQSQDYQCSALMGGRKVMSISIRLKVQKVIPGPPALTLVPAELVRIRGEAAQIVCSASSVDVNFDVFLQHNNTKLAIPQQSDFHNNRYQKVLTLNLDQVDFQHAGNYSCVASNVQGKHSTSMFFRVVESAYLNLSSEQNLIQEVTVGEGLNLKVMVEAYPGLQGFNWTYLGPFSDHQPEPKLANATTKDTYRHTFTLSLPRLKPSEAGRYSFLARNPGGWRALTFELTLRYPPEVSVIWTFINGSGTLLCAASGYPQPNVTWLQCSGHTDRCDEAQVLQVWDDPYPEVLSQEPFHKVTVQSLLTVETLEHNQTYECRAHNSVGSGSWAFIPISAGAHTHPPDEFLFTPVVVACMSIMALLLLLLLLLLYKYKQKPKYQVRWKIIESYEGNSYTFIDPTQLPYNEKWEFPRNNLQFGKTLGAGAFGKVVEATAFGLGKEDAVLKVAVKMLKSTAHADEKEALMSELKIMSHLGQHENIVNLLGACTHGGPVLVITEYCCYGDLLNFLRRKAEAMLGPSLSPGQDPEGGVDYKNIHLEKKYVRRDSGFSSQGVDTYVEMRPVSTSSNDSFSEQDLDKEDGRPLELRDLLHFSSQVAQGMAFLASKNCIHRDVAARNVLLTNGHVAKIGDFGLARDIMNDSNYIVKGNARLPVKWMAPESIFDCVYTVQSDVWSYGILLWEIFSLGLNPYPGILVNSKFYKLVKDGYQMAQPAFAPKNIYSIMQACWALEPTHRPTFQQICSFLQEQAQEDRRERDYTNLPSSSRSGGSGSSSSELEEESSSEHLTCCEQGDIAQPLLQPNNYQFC

Compound: COc1ccc2c(Cc3ccc(OCc4ccccc4OC)c(OC)c3)ccnc2c1 [Example 29]
- EC50 [1, 4]: 873 nM
- IC50 [2]: 73.9 nM

Compound: COc1ccc2c(Cc3ccc(OCc4cn5ccccc5n4)c(OC)c3)ccnc2c1 [Example 18, 4-(4-(imidazo[1,2-a]pyridin-2-ylmethoxy)-3-methoxybenzyl)-7-methoxy quinoline]
- EC50 [1, 4]: 196 nM
- EC50 [3, 5]: 272 nM
- IC50 [2]: 9.4 nM

Compound: COc1ccc(COc2ncc(Cc3ccnc4cc(-n5ccnc5C)cnc34)cc2OC)nc1 [Example 143]
- EC50 [1, 4]: 45.9 nM
- EC50 [3, 5]: 57.5 nM
- IC50 [2]: 15.7 nM

Compound: COc1ccc(COc2ncc(Cc3ccnc4cc(-c5cccnc5)cnc34)cc2OC)nc1 [Example 140, 8-((5-methoxy-6-((5-methoxypyridin-2-yl)methoxy)pyridin-3-yl)methyl)-3-(pyridin-3-yl)-1,5-naphthyridine]
- EC50 [1, 6]: 9.8 nM
- EC50 [3, 5]: 10.6 nM
- IC50 [2]: 9.4 nM

Compound: COc1ccc(COc2ncc(Cc3ccnc4cc(C(=O)N(C)C)cnc34)cc2OC)nc1 [Example 133]
- EC50 [1, 4]: 443 nM
- EC50 [3, 5]: 312 nM
- IC50 [2]: 58.8 nM

Compound: CCn1cc(COc2ncc(Cc3ccnc4cc(OC)cnc34)cc2OC)cn1 [Example 47]
- EC50 [1, 4]: > 1000 nM
- EC50 [3, 5]: > 1000 nM
- IC50 [2]: 2 nM

Compound: COc1cnc2c(Cc3cnc(OCc4ccc5nccn5n4)c(OC)c3)ccnc2c1 [Example 129]
- EC50 [1, 4]: 307 nM
- EC50 [3, 5]: 166 nM
- IC50 [2]: 42.7 nM

Compound: COc1cnc2c(Cc3cnc(OCc4cc(C)on4)c(OC)c3)ccnc2c1 [Example 51]
- EC50 [1, 4]: 590 nM
- EC50 [3, 5]: 225 nM
- IC50 [2]: 105 nM

Compound: COc1ccc(COc2ncc(Cc3ccnc4cc(-c5ccccn5)cnc34)cc2OC)nc1 [Example 139]
- EC50 [1, 4]: 8.8 nM
- EC50 [3, 5]: 7.9 nM
- IC50 [2]: 11.3 nM

Compound: COc1ccc(COc2ncc(Cc3ccnc4cncnc34)cc2OC)nc1 [Example 22, 8-((5-methoxy-6-((5-methoxypyridin-2-yl)methoxy)pyridin-3-yl)methyl)pyrido[3,2-d]pyrimidine]
- EC50 [1, 4]: > 1000 nM
- IC50 [2]: 64 nM

Compound: COc1cnc2c(Cc3cnc(OCc4cccc(=O)n4C)c(OC)c3)ccnc2c1 [Example 125]
- EC50 [1, 4]: > 1000 nM
- EC50 [3, 5]: 950 nM
- IC50 [2]: 522 nM

Compound: COc1cnc2c(Cc3cnc(OCc4ccc(C5CC5)cn4)c(OC(F)F)c3)ccnc2c1 [Example 69]
- EC50 [1, 4]: > 1000 nM
- EC50 [3, 5]: > 1000 nM
- IC50 [2]: 203 nM

Compound: COc1cnc2c(Cc3cnc(OCc4cc5n(n4)CCN(C)C5)c(OC)c3)ccnc2c1 [Example 75]
- EC50 [1, 4]: 949 nM
- EC50 [3, 5]: 448 nM
- IC50 [2]: 32 nM

Compound: COc1cnc2c(Cc3cnc(OCc4cc5n(n4)[C@@H]4C[C@@H]4C5)c(OC)c3)ccnc2c1 [Example 120]
- EC50 [1, 4]: 43.7 nM
- EC50 [3, 5]: 18 nM
- IC50 [2]: 1.9 nM

Compound: COc1ccc(COc2ncc(Cc3ccnc4cc(Cl)cnc34)cc2OC)nc1 [Example 62, 3-chloro-8-((5-methoxy-6-((5-methoxypyridin-2-yl)methoxy)pyridin-3-yl)methyl)-1,5-naphthyridine]
- EC50 [1, 6]: 177 nM
- EC50 ([3]; read-out: ECO2 EC50 (nM)): 496 nM

Compound: COc1cnc2c(Cc3cnc(OCc4cc5cccnc5[nH]4)c(OC)c3)ccnc2c1 [Example 149]
- EC50 [1, 4]: 61.6 nM
- EC50 [3, 5]: 91.2 nM
- IC50 [2]: 3.9 nM

Compound: COc1cnc2c(Cc3cnc(OCc4ccc(C5COC5)cn4)c(OC)c3)ccnc2c1 [Example 76]
- EC50 [1, 4]: 302 nM
- EC50 [3, 5]: 82.1 nM
- IC50 [2]: 13.6 nM

Compound: COc1ccc(COc2ncc(Cc3ccnc4cc(-c5cnn(C)c5)cnc34)cc2OC)nc1 [Example 130]
- EC50 [1, 4]: 2 nM
- EC50 [3, 5]: 1.5 nM
- IC50 [2]: 1.6 nM

Compound: COc1ccc(COc2ncc(Cc3ccnc4cc(N5CC(OC)C5)cnc34)cc2OC)nc1 [Example 141]
- EC50 [1, 4]: 5.8 nM
- EC50 [3, 5]: 3.7 nM
- IC50 [2]: 7.1 nM

Compound: COc1cnc2c(Cc3cnc(OCc4nc(C)no4)c(OC)c3)ccnc2c1 [Example 70]
- EC50 [1, 4]: > 1000 nM
- EC50 [3, 5]: > 1000 nM
- IC50 [2]: 272 nM

Compound: COc1cnc2c(Cc3ccc4nc(C5CCOCC5)cn4c3)ccnc2c1 [Example 156]
- EC50 [1, 4]: > 1000 nM
- EC50 [3, 5]: > 1000 nM
- IC50 [2]: > 1000 nM

Compound: COc1cnc2c(Cc3cnc(OCc4cccc(N5CCC5)n4)c(OC)c3)ccnc2c1 [Example 118]
- EC50 [1, 4]: 96.9 nM
- EC50 [3, 5]: 34.5 nM
- IC50 [2]: 3.6 nM

Compound: COc1ccc(COc2ncc(Cc3ccnc4cc(-n5cc(C)cn5)cnc34)cc2OC)nc1 [Example 142]
- EC50 [1, 4]: 7.3 nM
- EC50 [3, 5]: 4.8 nM
- IC50 [2]: 13.8 nM

Compound: COc1cnc2c(Cc3cnc(OCc4ccc(Cl)cn4)c(OC)c3)ccnc2c1 [Example 58]
- EC50 [1, 4]: 93.9 nM
- EC50 [3, 5]: 42.9 nM

Compound: COc1cnc2c(Cc3cnc(OCc4cccn(C)c4=O)c(OC)c3)ccnc2c1 [Example 124]
- EC50 [1, 4]: > 1000 nM
- EC50 [3, 5]: 442 nM
- IC50 [2]: 320 nM

Compound: COc1ccc(COc2ncc(Oc3ccnc4cc(OC)cnc34)cc2OC)nc1 [Example 54, 3-methoxy-8-((5-methoxy-6-((5-methoxypyridin-2-yl)methoxy)pyridin-3-yl)oxy)-1,5-naphthyridine]
- EC50 [1, 4]: 800 nM
- EC50 [3, 5]: 317 nM
- IC50 [2]: 87.1 nM

Compound: COc1ccc2c(Cc3ccc(OCc4cnc(C)s4)c(OC)c3)ccnc2c1 [Example 35]
- EC50 [1, 4]: 449 nM
- EC50 [3, 5]: 392 nM
- IC50 [2]: 16.1 nM

Compound: COc1ccc(COc2ccc(Cc3ccnc4ccccc34)cc2OC)cc1 [Example 3]
- EC50 [1, 4]: 89.2 nM

Compound: COc1ccc2c(Cc3ccc(OCc4ccncc4)c(OC)c3)ccnc2c1 [Example 10]
- EC50 [1, 4]: > 1000 nM
- IC50 [2]: 118 nM

Compound: COc1ccc(COc2ncc(Cc3ccnc4cnccc34)cc2OC)nc1 [Example 19, 4-((5-methoxy-6-((5-methoxypyridin-2-yl)methoxy)pyridin-3-yl)methyl)-1,7-naphthyridine]
- EC50 [1, 4]: > 1000 nM
- IC50 [2]: 47.6 nM

Compound: COc1cnc2c(Cc3ccc4nc(N5CCC(OC)CC5)cnc4c3)ccnc2c1 [Example 153, 3-methoxy-8-[[2-(4-methoxy-1-piperidyl)quinoxalin-6-yl]methyl]-1,5-naphthyridine]
- EC50 [1, 4]: > 1000 nM
- EC50 [3, 5]: > 1000 nM

Compound: COc1ccc(COc2ncc(Cc3ccnc4cc(OC)ccc34)cc2OC)nc1 [Example 13, 7-methoxy-4-((5-methoxy-6-((5-methoxypyridin-2-yl)methoxy)pyridin-3-yl)methyl)quinolone]
- EC50 [1, 4]: 176 nM
- EC50 [3, 5]: 151 nM

Compound: COc1ccc2c(Cc3ccc(OCc4cc(C)nn4C)c(OC)c3)ccnc2c1 [Example 23]
- EC50 [1, 4]: 323 nM
- IC50 [2]: 8 nM

Compound: COc1ccc(COc2ncc(Cc3ccnc4cc(N5CCOCC5)cnc34)cc2OC)nc1 [Example 119, 4-(8-((5-methoxy-6-((5-methoxypyridin-2-yl)methoxy)pyridin-3-yl)methyl)-1,5-naphthyridin-3-yl)morpholine]
- EC50 [1, 4]: 15.9 nM
- EC50 [3, 5]: 8 nM

Compound: COc1cccc(COc2ccc(Cc3ccnc4cc(OC)ccc34)cc2OC)c1 [Example 28]
- EC50 [1, 4]: 356 nM
- IC50 [2]: 25.7 nM

Compound: COc1ccc2c(Cc3ccc(OCc4ccc(=O)n(C)c4)c(OC)c3)ccnc2c1 [Example 26]
- EC50 [1, 4]: 283 nM
- IC50 [2]: 5 nM

Compound: COc1ccc(COc2ncc(Cc3ccnc4cc(N5CC6CC(C5)O6)cnc34)cc2OC)nc1 [Example 131]
- EC50 [1, 4]: 9.9 nM
- EC50 [3, 5]: 6.7 nM

Compound: COc1ccc2c(Cc3ccc(OCc4ccc5cnn(C)c5c4)c(OC)c3)ccnc2c1 [Example 12]
- EC50 [1, 4]: > 1000 nM
- IC50 [2]: 299 nM

Compound: COc1ccc(COc2ncc(Cc3ccnc4cc(C5CC5)cnc34)cc2OC)nc1 [Example 137]
- EC50 [1, 4]: 46.7 nM
- EC50 [3, 5]: 65 nM

Compound: COc1ccc(COc2ccc(Cc3ccnc4cc(OC)ccc34)cc2OC)cc1 [Example 1]
- EC50 [1, 4]: 42.6 nM
- EC50 [3, 5]: 42 nM

Compound: COc1cnc2c(Cc3cnc(OCc4cnn(C)c4)c(OC)c3)ccnc2c1 [Example 37]
- EC50 [1, 4]: > 1000 nM
- EC50 [3, 5]: > 1000 nM

Compound: COc1ccc2c(Cc3ccc(OCc4ccccn4)c(OC)c3)ccnc2c1 [Example 9]
- EC50 [1, 4]: 901 nM
- IC50 [2]: 169 nM

Compound: COc1ccc2c(Cc3ccc(OCc4cccnc4)c(OC)c3)ccnc2c1 [Example 8]
- EC50 [1, 4]: 546 nM

Compound: COc1ccc2c(Cc3ccc(OCc4nc5ccccc5n4C)c(OC)c3)ccnc2c1 [Example 11]
- EC50 [1, 4]: > 1000 nM
- IC50 [2]: 149 nM

Compound: COc1ccc2c(Cc3ccc(OCc4ccn(C)c(=O)c4)c(OC)c3)ccnc2c1 [Example 25]
- EC50 [1, 4]: 583 nM
- IC50 [2]: 40 nM

Compound: COc1ccc2c(Cc3ccc(OCc4cccc(C(F)(F)F)c4)c(OC)c3)ccnc2c1 [Example 27]
- EC50 [1, 4]: 207 nM
- IC50 [2]: 117 nM
